From US7820703B2, “Lysophosphatidic acid receptor selective antagonists” (University of Virginia Patent Foundation, priority 2004, dated 2010)
Entries after “also recorded” stand apart in the source; their conditions may differ.

Columns and labels:
[1] = molecular target: T1, LPA1 receptor (Mus musculus, UniProt P61793); experiment: antagonism of LPA-evoked GTP[γ35S] binding at LPA1; type: biochemical; conditions: GTP[γ35S] binding
T1 construct: expressed in transfected cells; host or cells: HEK293T cells (membranes)
Description: (§1) The appropriate receptor plasmid DNA (encoding mouse LPA1, human LPA2 or human LPA3) was mixed with equal amounts of expression plasmids (pcDNA3) encoding a mutated (C351F) rat Gi2a, cow β1, and γ2 proteins and these DNAs were used to transfect monolayers of HEK293T cells (where ‘T’ indicates expression of the SV-40 virus large T antigen) using the calcium phosphate precipitate method. After about 60 hours, cells were harvested, membranes were prepared, aliquoted and stored at −70° C. until use.
(§2) The GTP[35 γS] assay was performed as described by us previously. Membranes containing 5 ug of protein were incubated in 0.1 ml GTP-binding buffer (in mM: HEPES 50, NaCl 100, MgCl2 10, pH7.5) containing […], […], 0.1 nM GTP[35 γS] (1200 Ci/mmol), and indicated lipid(s) for 30 minutes at 30° C. Samples were analyzed for membrane-bound radionuclide using a Brandel Cell Harvester (Gaithersburg, Md.).
The X-intercept of the linear transformation is equal to the inverse log of the KI.
All compounds were characterized by ^1H and ^13C NMR, mass spectroscopy and, in certain cases, elemental analysis. A GTP[γ35S] binding assay was adapted to assess in vitro activity.
All compounds were characterized by ^1H and ^13C NMR, mass spectroscopy and, in most cases, C, H, N analyses. A membrane-based GTP[γ^35S] binding assay was adapted to assess in vitro activity at the LPA1 and LPA3 receptors.

[2] = test system: LPA receptors; experiment: whole cell assays of calcium mobilization or inhibition of cAMP accumulation, agonist activity; type: cell-based
Description: (§3) Assays for cAMP accumulation were conducted on populations of 5×10^5 cells stimulated with […] in the presence of the phosphodiesterase inhibitor isomethylbutylxanthine (IBMX) for 15 minutes at 30° C. cAMP was measured by automated radioimmunoassay.
A FLIPR™ (Molecular Devices, Inc.) was used to measure intracellular calcium in A431 and HEK293T cells. A431 cells were seeded (˜50,000 cells/well) in 96-well clear bottom black microplates (Corning Costar Corp., Cambridge, Mass.) and left overnight in CO2 incubator at 37° C. HEK293T cells were treated likewise, but seeded onto poly D-lysine coated microplates (Becton Dickinson, Franklin Lakes, N.J.). A431 cells were dye-loaded with 4 μM Fluo-3 AM ester (Molecular Probes Inc., Eugene, Oreg.) in a loading buffer (1×HBSS buffer, pH 7.4, containing 20 mM HEPES, 0.1% BSA, and 2.5 mM probenecid) for 1 hour at 37° C. Cells were then washed four times with the loading buffer and exposed in the FLIPR™ to sets of compounds. HEK293T cells were loaded with 2 μM Fluo-4 AM ester (Molecular Probes Inc., Eugene, Oreg.) in the same loading buffer without probenecid for 30 minutes and washed four times before being exposed to compounds in the FLIPR™. […]
The same activity was determined with human LPA1 using a recombinant baculovirus-infected insect Sf9 cell membrane preparation.

[3] = test system: Xenopus laevis ooctyes; experiment: chloride conductance in Xenopus laevis oocytes, endogenous receptor; type: cell-based
Description: (§4) wls-b8L and the other phosphonates were also tested also for activity in three whole cell assays. […] Finally, the activity of wls-b8L in activating a chloride conductance in Xenopus laevis ooctyes was measured.

[4] = test system: human platelets; experiment: aggregation of human platelets; type: cell-based; conditions: concentrations up to 10 micromolar
Text: wls-b8L is expected to be resistant to hydrolysis by phosphohydrolases by virtue of its containing a phosphonate, rather than a phosphate, group. Furthermore this chemical entity (wls-b8L) has two additional desirable properties.

[5] = molecular target: T2, mouse LPA1 (Mus musculus, UniProt P61793); experiment: cAMP accumulation in RH7777 cells expressing LPA1; type: cell-based; design: expressed in transfected cells; conditions: concentration of 1 μM
Description: as §3
Rat hepatoma RH7777 cell monolayers were transfected with the mLPA1 plasmid DNA using the calcium phosphate precipitate method and clonal populations expressing the neomycin phosphotransferase gene were selected by addition of geneticin (G418) to the culture media. The RH7777 cells were grown in monolayers at 37° C. in a 5% CO02/95% air atmosphere in growth media consisting of: 90% MEM, 10% fetal bovine serum, 2 mM glutamine and 1 mM sodium pyruvate.
as §4

[6] = molecular target: T2, mouse LPA1; experiment: GTP[γ35S] binding assay, agonist activity at LPA1; type: biochemical; design: expressed in transfected cells; host or cells: HEK293T cells (membranes)
Description: as §1
as §2, with “Md.). The C351F mutation renders the Gi2α protein resistant to inactivation by pertussis toxin or the alkylating agent N-ethylmaleimide; however in practice background binding was sufficiently low to obviate these maneuvers.” for “Md.).”
(§5) This assay isolates each recombinant LPA receptor and allows analysis of all three receptors using the same system.
(§6) Membranes prepared from these cells are used to measure GTPγ[^35S] binding as a function of test compound concentration. The resulting dose-response curves provide relative potency (EC50) and efficacy (Emax) for the test compounds.

[7] = molecular target: T3, human LPA3 (Homo sapiens, UniProt Q9UBY5); experiment: chloride conductance in Xenopus oocytes injected with human LPA3 mRNA; type: cell-based; design: expressed in transfected cells; host or cells: Xenopus laevis oocytes injected with mRNA; conditions: 10 μM applied to the oocyte surface
T3 sequence (Q9UBY5 1-353): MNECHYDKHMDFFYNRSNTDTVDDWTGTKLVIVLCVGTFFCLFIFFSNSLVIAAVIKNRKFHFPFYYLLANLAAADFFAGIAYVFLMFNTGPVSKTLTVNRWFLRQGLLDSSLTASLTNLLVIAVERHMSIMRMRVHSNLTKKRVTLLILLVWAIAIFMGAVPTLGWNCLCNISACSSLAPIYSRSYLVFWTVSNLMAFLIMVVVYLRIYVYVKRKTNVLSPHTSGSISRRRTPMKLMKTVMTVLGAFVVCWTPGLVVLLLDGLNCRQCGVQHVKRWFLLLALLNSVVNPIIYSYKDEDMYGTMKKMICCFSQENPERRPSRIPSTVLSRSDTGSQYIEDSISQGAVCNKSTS
Description: as §4

[8] = molecular target: T4, human LPA2 (Homo sapiens, UniProt Q9HBW0); experiment: chloride conductance in Xenopus oocytes injected with human LPA2 mRNA; type: cell-based; design: expressed in transfected cells; host or cells: Xenopus laevis oocytes injected with mRNA; conditions: 10 μM applied to the oocyte surface
Description: as §4

[9] = molecular target: T5, LPP1 (PAP2a) (Homo sapiens, UniProt O14494); experiment: LPP inhibition, competition with [32P]LPA, LPP1; type: biochemical; conditions: competition with 50 nM [32P]LPA
T5 sequence (O14494 1-284): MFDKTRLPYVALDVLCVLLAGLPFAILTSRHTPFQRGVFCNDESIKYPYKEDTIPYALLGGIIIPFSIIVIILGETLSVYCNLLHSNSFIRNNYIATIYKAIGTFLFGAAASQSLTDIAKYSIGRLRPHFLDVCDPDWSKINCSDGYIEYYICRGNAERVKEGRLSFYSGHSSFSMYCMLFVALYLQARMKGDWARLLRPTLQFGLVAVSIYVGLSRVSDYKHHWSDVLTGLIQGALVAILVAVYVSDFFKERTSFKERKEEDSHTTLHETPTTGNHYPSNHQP
Description: (§7) NOHPP was also tested for activity at the three cloned LPPs. Although the phosphonate head group eliminates the possibility of NOHPP acting as a substrate, it is possible that the compound could be a competitive inhibitor.

[10] = molecular target: T6, LPP3 (PAP2b) (Homo sapiens, UniProt O14495); experiment: LPP inhibition, competition with [32P]LPA, LPP3; type: biochemical; conditions: competition with 50 nM [32P]LPA
T6 sequence (O14495 1-311): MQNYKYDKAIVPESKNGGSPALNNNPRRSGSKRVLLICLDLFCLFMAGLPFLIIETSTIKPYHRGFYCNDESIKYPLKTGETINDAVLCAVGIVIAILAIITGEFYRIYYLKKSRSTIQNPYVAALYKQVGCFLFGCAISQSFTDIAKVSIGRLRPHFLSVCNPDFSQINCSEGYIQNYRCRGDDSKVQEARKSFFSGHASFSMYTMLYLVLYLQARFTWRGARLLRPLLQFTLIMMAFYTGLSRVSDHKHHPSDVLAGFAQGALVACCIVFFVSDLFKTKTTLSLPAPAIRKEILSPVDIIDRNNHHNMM
Description: as §7

[11] = molecular target: T4, human LPA2; experiment: GTP[γ35S] binding assay, agonist activity at LPA2; type: biochemical; design: expressed in transfected cells; host or cells: HEK293T cells (membranes)
Description: as §1, §2, §6

[12] = molecular target: T3, human LPA3; experiment: GTP[γ35S] binding assay, agonist activity at LPA3; type: biochemical; design: expressed in transfected cells; host or cells: HEK293T cells (membranes)
Description: as §1
as §2, with “Md.). The C351F mutation renders the Gi2α protein resistant to inactivation by pertussis toxin or the alkylating agent N-ethylmaleimide; however in practice background binding was sufficiently low to obviate these maneuvers.” for “Md.).”
as §5, §6

[13] = molecular target: T4, human LPA2; experiment: antagonism of LPA-evoked GTP[γ35S] binding at LPA2; type: biochemical; design: expressed in transfected cells; host or cells: HEK293T cells (membranes)
Description: as §1
as §2, with “Md.). The C351F mutation renders the Gi2α protein resistant to inactivation by pertussis toxin or the alkylating agent N-ethylmaleimide; however in practice background binding was sufficiently low to obviate these maneuvers.” for “Md.).”
All compounds were characterized by ^1H and ^13C NMR, mass spectroscopy and, in certain cases, elemental analysis. A GTP[γ35S] binding assay was adapted to assess in vitro activity. […] The Ki values as determined by Schild regression are shown for the LPA1 receptor. […]

T2 sequence (P61793 whole entry): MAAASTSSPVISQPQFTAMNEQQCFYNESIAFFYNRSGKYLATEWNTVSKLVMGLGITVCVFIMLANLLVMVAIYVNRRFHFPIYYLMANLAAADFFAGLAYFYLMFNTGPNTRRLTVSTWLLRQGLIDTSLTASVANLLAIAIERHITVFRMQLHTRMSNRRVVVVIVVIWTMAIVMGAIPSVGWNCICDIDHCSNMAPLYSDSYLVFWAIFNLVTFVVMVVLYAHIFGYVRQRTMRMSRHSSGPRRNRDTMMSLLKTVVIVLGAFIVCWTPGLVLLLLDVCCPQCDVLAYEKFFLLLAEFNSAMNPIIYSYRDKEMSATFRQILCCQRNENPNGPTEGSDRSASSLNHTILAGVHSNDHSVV
T4 sequence (Q9HBW0 whole entry): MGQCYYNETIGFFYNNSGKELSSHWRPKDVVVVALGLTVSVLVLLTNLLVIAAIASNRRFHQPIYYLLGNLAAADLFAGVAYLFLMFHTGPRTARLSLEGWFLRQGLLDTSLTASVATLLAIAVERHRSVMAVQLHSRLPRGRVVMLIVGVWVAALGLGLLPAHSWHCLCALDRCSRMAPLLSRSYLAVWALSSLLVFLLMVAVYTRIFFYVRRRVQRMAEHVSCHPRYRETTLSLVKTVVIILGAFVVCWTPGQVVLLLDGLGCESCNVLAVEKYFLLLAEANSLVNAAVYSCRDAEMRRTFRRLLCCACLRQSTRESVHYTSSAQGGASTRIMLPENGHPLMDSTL
T1 sequence (P61793 whole entry): as the sequence (P61793 whole entry) above

CCCCCCCC/C=C\CCCCCCCC(=O)N[C@@H](COP(=O)(O)O)Cc1ccccc1 [VPC12084]
antagonist activity at LPA1, in words [1]: did block LPA activity | agonist activity in whole cell assays [2]: appreciable agonist activity

CCCCCCCC/C=C\CCCCCCCC(=O)NCCCP(=O)(O)O [wls-b8L, (9Z)-N-(3-phosphonopropyl)octadec-9-enamide]
activating a chloride conductance, endogenous receptor [3]: does not evoke this response | aggregation of human platelets [4]: does not elicit aggregation | inhibition of cAMP accumulation, efficacy [5]: fully efficacious | agonist activity at LPA1, in words [6]: more potent and efficacious at LPA1 than at either LPA2 or LPA3 | chloride conductance response, oocytes injected with human LPA3 mRNA [7]: very modest response | chloride conductance response, oocytes injected with human LPA2 mRNA [8]: very modest response

CCCCCCCC/C=C\CCCCCCCC(=O)NCCC(O)P(=O)(O)O (racemic) [NOHPP, (9Z)-N-(rac-3-hydroxy-3-phosphonopropyl)octadec-9-enamide]
inhibition of LPP1 [9]: to a lesser extent | inhibition of LPP3 [10]: inhibited | inhibition of LPP3 ([10]; listed as VPC12031): markedly better at the PAP2b (LPP3) than PAP2a (LPP1) | agonist activity at LPA1, in words [6]: fully efficacious; also recorded: as efficacious as, but somewhat less potent than, LPA | agonist activity at LPA2, in words [11]: fully efficacious; also recorded: as efficacious as, but somewhat less potent than, LPA | agonist activity at LPA3, in words [12]: little activity; also recorded: distinctly less potent and far less efficacious than LPA

CCCCCCCC/C=C\CCCCCCCC(=O)N[C@@H](COP(=O)(O)O)Cc1ccc(OCc2ccc(CCCCC)cc2)cc1 [VPC31162]
agonist activity at LPA1, in words [6]: agonist | agonist activity at LPA3, in words [12]: agonist | antagonist activity at LPA2, in words [13]: antagonist activity
